Measured values as given in ChEMBL document CHEMBL1255356, “The efflux pump inhibitor reserpine selects multidrug-resistant Streptococcus pneumoniae strains that overexpress the ABC transporters PatA and PatB” (2008).
Converted amounts (≈) assume the structure as drawn.

Key:
[1] = system: Streptococcus pneumoniae; assay: Inhibition of ABC efflux pump in Streptococcus pneumoniae M184 assessed as increase in accumulation of ciprofloxacin by fluorometric uptake assay relative to wild type
[2] = system: Streptococcus pneumoniae; assay: Inhibition of ABC efflux pump in Streptococcus pneumoniae M184 assessed as increase in accumulation of ethidium bromide by fluorescence method after 10 mins relative to wild type; set-up: scale not given: the % may be the effect or the level left
[3] = system: Streptococcus pneumoniae; assay: Inhibition of ABC efflux pump in Streptococcus pneumoniae M186 assessed as increase in accumulation of ciprofloxacin by fluorometric uptake assay relative to wild type
[4] = system: Streptococcus pneumoniae; assay: Inhibition of ABC efflux pump in Streptococcus pneumoniae M168 assessed as increase in accumulation of ciprofloxacin by fluorometric uptake assay relative to sStreptococcus pneumoniae M4
[5] = system: Streptococcus pneumoniae; assay: Antibacterial activity against Streptococcus pneumoniae M231 by microdilution method; type: functional
[6] = system: Streptococcus pneumoniae; assay: Inhibition of ABC efflux pump in Streptococcus pneumoniae M184 assessed as reduction in ciprofloxacin MIC at 80 ug/ml
[7] = system: Streptococcus pneumoniae; assay: Antibacterial activity against Streptococcus pneumoniae M234 by microdilution method; type: functional
[8] = system: Streptococcus pneumoniae; assay: Inhibition of ABC efflux pump in Streptococcus pneumoniae M4 assessed as increase in accumulation of ciprofloxacin by fluorometric uptake assay relative to wild type
[9] = system: Streptococcus pneumoniae; assay: Antibacterial activity against Streptococcus pneumoniae M168 by microdilution method; type: functional
[10] = system: Streptococcus pneumoniae; assay: Antibacterial activity against Streptococcus pneumoniae M184 by microdilution method; type: functional
[11] = system: Streptococcus pneumoniae; assay: Inhibition of ABC efflux pump in Streptococcus pneumoniae M169 assessed as increase in accumulation of ethidium bromide by fluorescence method after 10 mins relative to wild type; set-up: scale not given: the % may be the effect or the level left
[12] = system: Streptococcus pneumoniae; assay: Inhibition of ABC efflux pump in Streptococcus pneumoniae M169 assessed as increase in accumulation of ciprofloxacin by fluorometric uptake assay relative to wild type
[13] = system: Streptococcus pneumoniae; assay: Inhibition of ABC efflux pump in Streptococcus pneumoniae M168 assessed as increase in accumulation of ethidium bromide by fluorescence method after 10 mins relative to Streptococcus pneumoniae M4; set-up: scale not given: the % may be the effect or the level left
[14] = system: Streptococcus pneumoniae; assay: Antibacterial activity against Streptococcus pneumoniae M230 by microdilution method; type: functional
[15] = system: Streptococcus pneumoniae; assay: Antibacterial activity against Streptococcus pneumoniae M236 by microdilution method; type: functional
[16] = system: Streptococcus pneumoniae; assay: Antibacterial activity against Streptococcus pneumoniae M235 by microdilution method; type: functional
[17] = system: Streptococcus pneumoniae; assay: Antibacterial activity against Streptococcus pneumoniae M240 by microdilution method; type: functional
[18] = system: Streptococcus pneumoniae; assay: Antibacterial activity against Streptococcus pneumoniae M4 by microdilution method; type: functional
[19] = system: Streptococcus pneumoniae; assay: Antibacterial activity against Streptococcus pneumoniae M186 by microdilution method; type: functional
[20] = system: Streptococcus pneumoniae; assay: Antibacterial activity against Streptococcus pneumoniae M169 by microdilution method; type: functional
[21] = system: Streptococcus pneumoniae; assay: Inhibition of ABC efflux pump in Streptococcus pneumoniae M186 assessed as reduction in ciprofloxacin MIC at 80 ug/ml
[22] = system: Streptococcus pneumoniae; assay: Inhibition of ABC efflux pump in Streptococcus pneumoniae M186 assessed as increase in accumulation of ethidium bromide by fluorescence method after 10 mins relative to wild type; set-up: scale not given: the % may be the effect or the level left
[23] = system: Streptococcus pneumoniae; assay: Inhibition of ABC efflux pump in Streptococcus pneumoniae M169 assessed as reduction in ciprofloxacin MIC at 80 ug/ml
[24] = system: Streptococcus pneumoniae; assay: Antibacterial activity against Streptococcus pneumoniae M246 by microdilution method; type: functional
[25] = system: Streptococcus pneumoniae; assay: Antibacterial activity against Streptococcus pneumoniae M233 by microdilution method; type: functional
[26] = system: Streptococcus pneumoniae; assay: Antibacterial activity against Streptococcus pneumoniae R6 by microdilution method; type: functional

fold change (FC) [1]: 2.8 | Activity [2]: 26.7% | fold change (FC) [3]: 2.1 | fold change (FC) [4]: 2.3 | MIC [5]: 64 µg/mL (≈ 105 µM) | Activity [6]: 1 µg/mL | MIC [7]: 64 µg/mL (≈ 105 µM) | fold change (FC) [8]: 1.6 | MIC [9]: 256 µg/mL (≈ 421 µM) | MIC [10]: 256 µg/mL (≈ 421 µM) | Activity [11]: 24.6% | fold change (FC) [12]: 2.9 | Activity [13]: 27.7% | MIC [14]: 256 µg/mL (≈ 421 µM) | MIC [15]: 64 µg/mL (≈ 105 µM) | MIC [16]: 256 µg/mL (≈ 421 µM) | MIC [17]: 64 µg/mL (≈ 105 µM) | MIC [18]: 64 µg/mL (≈ 105 µM) | MIC [19]: 256 µg/mL (≈ 421 µM) | MIC [20]: 256 µg/mL (≈ 421 µM) | Activity [21]: 1 µg/mL | Activity [22]: 32.9% | Activity [23]: 1 µg/mL | MIC [24]: 64 µg/mL (≈ 105 µM) | MIC [25]: 256 µg/mL (≈ 421 µM) | MIC [26]: 64 µg/mL (≈ 105 µM)
SMILES: COC(=O)[C@H]1[C@H]2C[C@@H]3c4[nH]c5cc(OC)ccc5c4CCN3C[C@H]2C[C@@H](OC(=O)c2cc(OC)c(OC)c(OC)c2)[C@@H]1OC [RESERPINE]
